Experimental data taken from patent US11878966B2, “Substituted 4-benzyl and 4-benzoyl piperidine derivates” (89BIO LTD, priority 2015, dated 2024).

Molecular target: T1, recombinant human baculovirus-expressed GST-tagged FASN (Homo sapiens, UniProt P49327)
T1 construct: GST; host or cells: baculovirus expression system (insect cells implied)
Assay: FASN enzyme activity assay: fluorescence-based detection of CoA with CPM
Assay type: biochemical
Details: 5 nM FASN, 150 μM NADPH, 10 μM acetyl-CoA, 25 μM malonyl-CoA, 90 minutes incubation
How it was run: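 IC50 values were fitted (variable-slope sigmoid) to percent inhibition from CPM fluorescence (390/530 nm) reporting free CoA after a 30 min labelling step. The reaction ran 90 min after malonyl-CoA (25 μM) addition, with 10 μM acetyl-CoA, 150 μM NADPH, 5 nM recombinant GST-FASN, 50 mM HEPES pH 7.5 and 0.5% DMSO.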

T1 sequence (P49327 whole entry): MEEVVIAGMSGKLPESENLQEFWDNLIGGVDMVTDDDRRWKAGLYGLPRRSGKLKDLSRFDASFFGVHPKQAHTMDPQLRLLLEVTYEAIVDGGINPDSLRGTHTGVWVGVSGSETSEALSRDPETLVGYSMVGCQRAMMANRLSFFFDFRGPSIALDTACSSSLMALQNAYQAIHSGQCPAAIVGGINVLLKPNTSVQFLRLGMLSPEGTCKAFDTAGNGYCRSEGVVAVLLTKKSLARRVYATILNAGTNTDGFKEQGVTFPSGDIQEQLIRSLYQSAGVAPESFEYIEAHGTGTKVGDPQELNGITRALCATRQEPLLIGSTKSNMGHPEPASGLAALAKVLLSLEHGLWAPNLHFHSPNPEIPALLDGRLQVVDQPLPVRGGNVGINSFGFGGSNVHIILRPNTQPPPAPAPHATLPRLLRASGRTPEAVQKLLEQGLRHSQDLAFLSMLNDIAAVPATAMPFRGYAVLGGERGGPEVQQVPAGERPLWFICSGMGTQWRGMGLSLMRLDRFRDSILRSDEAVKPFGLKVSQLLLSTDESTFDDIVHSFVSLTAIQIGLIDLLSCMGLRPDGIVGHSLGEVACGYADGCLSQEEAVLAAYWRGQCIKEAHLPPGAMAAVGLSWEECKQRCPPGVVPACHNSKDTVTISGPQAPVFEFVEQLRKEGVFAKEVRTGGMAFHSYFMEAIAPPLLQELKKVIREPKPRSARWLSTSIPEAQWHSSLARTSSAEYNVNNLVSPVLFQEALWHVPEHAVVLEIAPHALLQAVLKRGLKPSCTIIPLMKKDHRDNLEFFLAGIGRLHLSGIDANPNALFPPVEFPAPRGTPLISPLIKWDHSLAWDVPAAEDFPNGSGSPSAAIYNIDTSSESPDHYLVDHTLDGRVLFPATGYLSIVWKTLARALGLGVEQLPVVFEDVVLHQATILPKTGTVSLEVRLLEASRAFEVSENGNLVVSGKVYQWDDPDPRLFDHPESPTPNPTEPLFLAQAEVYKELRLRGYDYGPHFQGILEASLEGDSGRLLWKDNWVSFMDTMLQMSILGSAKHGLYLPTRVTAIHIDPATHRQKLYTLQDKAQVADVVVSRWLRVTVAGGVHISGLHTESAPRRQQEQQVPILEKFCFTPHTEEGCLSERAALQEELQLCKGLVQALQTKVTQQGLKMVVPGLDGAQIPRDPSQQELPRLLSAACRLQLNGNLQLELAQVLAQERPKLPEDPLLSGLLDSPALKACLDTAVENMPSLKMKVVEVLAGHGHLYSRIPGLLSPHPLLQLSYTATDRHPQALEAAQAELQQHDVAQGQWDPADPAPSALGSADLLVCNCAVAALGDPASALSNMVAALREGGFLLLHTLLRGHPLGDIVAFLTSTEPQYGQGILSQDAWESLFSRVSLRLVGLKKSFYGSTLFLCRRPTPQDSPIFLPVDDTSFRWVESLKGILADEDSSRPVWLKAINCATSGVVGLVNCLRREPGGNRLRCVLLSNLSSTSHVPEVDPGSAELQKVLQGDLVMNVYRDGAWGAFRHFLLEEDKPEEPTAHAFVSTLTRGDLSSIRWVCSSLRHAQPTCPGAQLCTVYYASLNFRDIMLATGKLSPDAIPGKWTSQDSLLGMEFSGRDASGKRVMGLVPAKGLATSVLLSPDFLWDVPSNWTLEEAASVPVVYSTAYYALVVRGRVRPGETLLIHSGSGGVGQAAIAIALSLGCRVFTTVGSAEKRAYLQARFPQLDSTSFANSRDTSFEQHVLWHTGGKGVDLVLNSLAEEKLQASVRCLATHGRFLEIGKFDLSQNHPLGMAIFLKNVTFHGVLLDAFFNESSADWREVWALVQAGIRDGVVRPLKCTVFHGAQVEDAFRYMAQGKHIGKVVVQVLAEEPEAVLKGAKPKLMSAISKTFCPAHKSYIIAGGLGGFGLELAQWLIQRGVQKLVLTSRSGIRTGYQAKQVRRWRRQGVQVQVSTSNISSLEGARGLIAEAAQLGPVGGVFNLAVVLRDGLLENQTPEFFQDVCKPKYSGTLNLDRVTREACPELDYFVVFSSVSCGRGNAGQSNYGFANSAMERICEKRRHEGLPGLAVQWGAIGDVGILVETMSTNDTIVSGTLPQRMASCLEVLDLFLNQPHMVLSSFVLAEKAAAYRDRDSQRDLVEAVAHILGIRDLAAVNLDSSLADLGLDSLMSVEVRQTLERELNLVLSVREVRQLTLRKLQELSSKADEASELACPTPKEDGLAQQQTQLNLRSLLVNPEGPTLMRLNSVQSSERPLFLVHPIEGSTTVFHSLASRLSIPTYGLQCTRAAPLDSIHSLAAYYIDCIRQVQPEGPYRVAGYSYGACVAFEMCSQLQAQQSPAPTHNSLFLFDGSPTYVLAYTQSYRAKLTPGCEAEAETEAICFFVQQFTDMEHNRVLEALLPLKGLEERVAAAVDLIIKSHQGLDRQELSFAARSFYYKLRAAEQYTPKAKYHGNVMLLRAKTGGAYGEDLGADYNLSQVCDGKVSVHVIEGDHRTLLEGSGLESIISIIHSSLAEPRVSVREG

| IC50 | SMILES |
| --- | --- |
| 0.1 to 0.999 µM | CCC(=O)N1CCC(C(=O)c2ccc(-c3ccc4cccnc4c3)cc2F)CC1 [Example 142, 1-[4-(2-Fluoro-4-quinolin-7-yl-benzoyl)-piperidin-1-yl]-propan-1-one] |
| 0.001 to 0.099 µM | CCC(=O)N1CC=C(Cc2ccc(-c3cnc4ccccc4c3)cc2)CC1 [Example 162, 1-(4-(4-(quinolin-3-yl)benzyl)-5,6-dihydropyridin-1(2H)-yl)propan-1-one] |
| 0.1 to 0.999 µM | COC(C)(c1ccc(-c2ccc3cccnc3c2)cc1)C1CCN(C(=O)C2CC2)CC1 (stereo not shown) [Example 213, Cyclopropyl-{4-[1-methoxy-1-(4-quinolin-7-yl-phenyl)-ethyl]-piperidin-1-yl}-methanone] |
| 0.001 to 0.099 µM | CCNC(=O)N1CCC(Cc2ccc(-c3ccc4cccnc4c3C)cc2)CC1 [Example 229, N-ethyl-4-[[4-(8-methyl-7-quinolyl)phenyl]methyl]piperidine-1-carboxamide] |
| 1 to 10 µM | CCC(=O)N1CCC(C(=O)c2ccc(-c3ccc4cccnc4c3)cc2)CC1 [Example 124, 1-[4-(4-Quinolin-7-yl-benzoyl)-piperidin-1-yl]-propan-1-one] |
| 0.1 to 0.999 µM | O=C(C1CC1)N1CCC(F)(Cc2ccc(-c3ccc4occc4c3)cc2)CC1 [Example 179, (4-(4-(benzofuran-5-yl)benzyl)-4-fluoropiperidin-1-yl)(cyclopropyl)methanone] |
| 0.001 to 0.099 µM | O=C(C1CCCO1)N1CC=C(Cc2ccc(-c3ccc4cccnc4c3)cc2)CC1 (stereo in doubt) [Example 188, (R)-(4-(4-(quinolin-7-yl)benzyl)-5,6-dihydropyridin-1(2H)-yl)(tetrahydrofuran-2-yl)methanone] |
| 1 to 10 µM | CCC(=O)N1CCC(F)(C(=O)c2ccc(-c3ccc4cccnc4c3C)cc2)CC1 [Example 222, 1-{4-Fluoro-4-[4-(8-methylquinolin-7-yl)-benzoyl]-piperidin-1-yl}-propan-1-one] |
| 1 to 10 µM | CCC(=O)N1CCC(C(C)(O)c2ccc(-c3ccc4cnccc4c3)cc2)C1 (stereo not shown) [Example 134, 1-{3-[1-Hydroxy-1-(4-isoquinolin-6-yl-phenyl)-ethyl]-pyrrolidin-1-yl}-propan-1-one] |
| 0.1 to 0.999 µM | CC(C)C(=O)N1CCC(C2(c3ccc(-c4cnc5ccccc5c4)cc3)OCCO2)CC1 [Example 140, 2-Methyl-1-{4-[2-(4-quinolin-3-yl-phenyl)-1,3-dioxolan-2-yl]-piperidin-1-yl}-propan-1-one] |
| 0.1 to 0.999 µM | CCOC(C)(c1ccc(-c2ccc3cccnc3c2)cc1)C1CCN(C(=O)C2CC2)CC1 (stereo not shown) [Example 215, Cyclopropyl-{4-[1-ethoxy-1-(4-quinolin-7-yl-phenyl)-ethyl]-piperidin-1-yl}-methanone] |
| 0.1 to 0.999 µM | CCC(=O)N1CC[C@@H](Cc2ccc(-c3cnc4ccccc4c3)cc2)[C@H](OC)C1 (relative stereo) [Example 219, 1-[(trans)-3-Methoxy-4-(4-quinolin-3-yl-benzyl)-piperidin-1-yl]-propan-1-one] |
| 0.1 to 0.999 µM | CCC(=O)N1CC=C(Cc2ccc(-c3ccc4cnccc4c3)cc2)CC1 [Example 166, 1-(4-(4-(isoquinolin-6-yl)benzyl)-5,6-dihydropyridin-1(2H)-yl)propan-1-one] |
| 0.001 to 0.099 µM | CCC(=O)N1CCC(F)(C(OC)c2ccc(-c3ccc4cccnc4c3C)cc2)CC1 (stereo not shown) [Example 225, 1-(4-Fluoro-4-{methoxy-[4-(8-methyl-quinolin-7-yl)-phenyl]-methyl}-piperidin-1-yl)-propan-1-one] |
| 1 to 10 µM | CCC(=O)N1CCC(C2(c3ccc(-c4ccc5ccncc5c4)cc3)OCCO2)CC1 [Example 116, 1-{4-[2-(4-Isoquinolin-7-yl-phenyl)-1,3-dioxolan-2-yl]-piperidin-1-yl}-propan-1-one] |
| 1 to 10 µM | CCC(=O)N1CCC(C(CC)(OC)c2ccc(-c3ccc4cccnc4c3)cc2)CC1 (stereo not shown) [Example 216, 1-{4-[1-Methoxy-1-(4-quinolin-7-yl-phenyl)-propyl]-piperidin-1-yl}-propan-1-one] |
| 0.1 to 0.999 µM | CCC(=O)N1CCC(Cc2ccc(-c3cnc4ccccc4c3)cc2)C(=O)C1 (stereo not shown) [Example 220, 1-Propionyl-4-(4-quinolin-3-yl-benzyl)-piperidin-3-one] |
| 0.1 to 0.999 µM | CCC(=O)N1CCC(C(C)(O)c2ccc(-c3ccc4cnccc4c3)cc2)CC1 (stereo not shown) [Example 131, 1-{4-[1-Hydroxy-1-(4-isoquinolin-6-yl-phenyl)-ethyl]-piperidin-1-yl}-propan-1-one] |
| 0.1 to 0.999 µM | CCC(=O)N1CCC(C(C)(C)c2ccc(-c3cnc4ccccc4c3)cc2)CC1 [Example 205, 1-(4-(2-(4-(quinolin-3-yl)phenyl)propan-2-yl)piperidin-1-yl)propan-1-one] |
| 1 to 10 µM | CCC(=O)N1CCC(C(=O)c2ccc(-c3ccc4cnccc4c3)cc2)CC1 [Example 129, 1-[4-(4-Isoquinolin-6-yl-benzoyl)-piperidin-1-yl]-propan-1-one] |
| 0.1 to 0.999 µM | O=C(C1CC1)N1CC=C(Cc2ccc(-c3cnc4ccccc4c3)cc2)CC1 [Example 172, Cyclopropyl(4-(4-(quinolin-3-yl)benzyl)-5,6-dihydropyridin-1(2H)-yl)methanone] |
| 0.001 to 0.099 µM | Cc1c(-c2ccc(CC3CCN(C(=O)N4CCCC4)CC3)cc2)ccc2cccnc12 [Example 234, [4-[[4-(8-methyl-7-quinolyl)phenyl]methyl]-1-piperidyl]-pyrrolidin-1-yl-methanone] |

The next lines start with the compound.

| SMILES | IC50 |
| --- | --- |
| Cc1c(-c2ccc(CC3CCN(C(=O)[C@H]4CCCO4)CC3)cc2)ccc2cccnc12 [Example 25, {4-[4-(8-Methylquinolin-7-yl)-benzyl]-piperidin-1-yl}-(R)-tetrahydrofuran-2-yl-methanone] | 0.001 to 0.099 µM |
| O=C([C@H]1CCCO1)N1CCC(C(F)c2ccc(-c3cnc4ccccc4c3)cc2)CC1 (stereo partly drawn) [Example 8, {4-[Fluoro-(4-quinolin-3-yl-phenyl)-methyl]-piperidin-1-yl}-(R)-tetrahydro-furan-2-yl-methanone] | 0.001 to 0.099 µM |
| O=C(NC1CCCC1)N1CCC(C2(c3ccc(-c4ccc5ncccc5c4)cc3)OCCO2)CC1 [Example 107, 4-[2-(4-Quinolin-6-yl-phenyl)-1,3-dioxolan-2-yl]-piperidine-1-carboxylic Acid Cyclopentylamide] | 1 to 10 µM |
| CCC(=O)N1CCC(Cc2ccc(-c3ccc4cccnc4c3C)cc2)CC1 [Example 23, 1-{4-[4-(8-Methylquinolin-7-yl)-benzyl]-piperidin-1-yl}-propan-1-one] | 0.001 to 0.099 µM |
| O=C(C1CC1)N1CCC(C2(c3ccc(-c4cnc5ccccc5c4)cc3)CC2)CC1 [Example 44, Cyclopropyl-{4-[1-(4-quinolin-3-yl-phenyl)-cyclopropyl]-piperidin-1-yl}-methanone] | 0.1 to 0.999 µM |
| CCC(=O)N1CCC(C(F)(F)c2ccc(-c3cnc4ccccc4c3)cc2)CC1 [Example 16, 1-{4-[Difluoro-(4-quinolin-3-yl-phenyl)-methyl]-piperidin-1-yl}-propan-1-one] | 0.1 to 0.999 µM |
| Cc1c(-c2ccc(CC3CCN(C(=O)C4CC4)CC3)cc2)cnc2ccccc12 [Example 13, Cyclopropyl-{4-[4-(4-methylquinolin-3-yl)-benzyl]-piperidin-1-yl}-methanone] | 0.001 to 0.099 µM |
| COc1c(-c2ccc(C(C)C3CCN(C(=O)C4CC4)CC3)cc2)ccc2cccnc12 (stereo not shown) [Example 66, Cyclopropyl-(4-{1-[4-(8-methoxyquinolin-7-yl)-phenyl]-ethyl}-piperidin-1-yl)-methanone] | 0.001 to 0.099 µM |
| O=C([C@@H]1CCCO1)N1CCC(Cc2ccc(-c3cnc4ccccc4c3)cc2)CC1 [Example 5] | 0.001 to 0.099 µM |
| O=C([C@H]1CCCO1)N1CCC(C(OCCN2CCCC2)c2ccc(-c3cnc4ccccc4c3)cc2)CC1 (stereo partly drawn) [Example 88, {4-[(2-Pyrrolidin-1-yl-ethoxy)-(4-quinolin-3-yl-phenyl)-methyl]-piperidin-1-yl}-(R)-tetrahydrofuran-2-yl-methanone] | 0.1 to 0.999 µM |
| CCCC(c1ccc(-c2cnc3ccccc3c2)cc1)C1CCN(C(=O)CC)CC1 (stereo not shown) [Example 54, 1-{4-[1-(4-Quinolin-3-yl-phenyl)-butyl]-piperidin-1-yl}-propan-1-one] | 0.001 to 0.099 µM |
| CCC(=O)N1CCC(C(OCCOC)c2ccc(-c3ccc4cccnc4c3C)cc2)CC1 (stereo not shown) [Example 81, 1-(4-{(2-Methoxyethoxy)-[4-(8-methyl-quinolin-7-yl)-phenyl]-methyl}-piperidin-1-yl)-propan-1-one] | 0.001 to 0.099 µM |
| CC(=O)N1CCC(C2(c3ccc(-c4ccc5ccncc5c4)cc3)OCCO2)CC1 [Example 115, 1-{4-[2-(4-Isoquinolin-7-yl-phenyl)-1,3-dioxolan-2-yl]-piperidin-1-yl}-ethanone] | 1 to 10 µM |
| O=C(C1CC1)N1CCC(C2(c3ccc(-c4ccc5cccnc5c4)cc3)OCCO2)CC1 [Example 112, Cyclopropyl-{4-[2-(4-quinolin-7-yl-phenyl)-1,3-dioxolan-2-yl]-piperidin-1-yl}-methanone] | 1 to 10 µM |
| CCC(=O)N1CCC(Cc2ccc(-c3cnc4ccccc4c3Cl)cc2)CC1 [Example 19, 1-{4-[4-(4-Chloroquinolin-3-yl)-benzyl]-piperidin-1-yl}-propan-1-one] | 0.001 to 0.099 µM |
| CC(C)C(=O)N1CCC(C2(c3ccc(-c4ccc5ncccc5c4)cc3)OCCO2)CC1 [Example 102, 2-Methyl-1-{4-[2-(4-quinolin-6-yl-phenyl)-1,3-dioxolan-2-yl]-piperidin-1-yl}-propan-1-one] | 1 to 10 µM |
| COc1c(-c2ccc(C(C)C3CCN(C(=O)[C@H]4CCCO4)CC3)cc2)ccc2cccnc12 (mixture of isomers) [Example 69, (4-{1-[4-(8-Methoxyquinolin-7-yl)-phenyl]-ethyl}-piperidin-1-yl)-(R)-tetrahydrofuran-2-yl-methanone] | 0.001 to 0.099 µM |
| Cc1c(-c2ccc(C(OCCCN3CCOCC3)C3CCN(C(=O)[C@H]4CCCO4)CC3)cc2)cnc2ccccc12 (stereo partly shown) [Example 87] | 0.001 to 0.099 µM |
